Reference: ChEMBL document CHEMBL3763124, “N-Benzylbenzamides: A Novel Merged Scaffold for Orally Available Dual Soluble Epoxide Hydrolase/Peroxisome Proliferator-Activated Receptor γ Modulators” (J Med Chem, 2016)
≈ marks a conversion by molar mass, not a printed value. Calls of active or inactive are those of the source. The calls are words filed in the database; no cut-off is given here.

Columns and labels:
[1] = molecular target: T1, Peroxisome proliferator-activated receptor gamma (Homo sapiens, UniProt P37231); conditions: cos-7
T1 sequence (P37231 whole entry): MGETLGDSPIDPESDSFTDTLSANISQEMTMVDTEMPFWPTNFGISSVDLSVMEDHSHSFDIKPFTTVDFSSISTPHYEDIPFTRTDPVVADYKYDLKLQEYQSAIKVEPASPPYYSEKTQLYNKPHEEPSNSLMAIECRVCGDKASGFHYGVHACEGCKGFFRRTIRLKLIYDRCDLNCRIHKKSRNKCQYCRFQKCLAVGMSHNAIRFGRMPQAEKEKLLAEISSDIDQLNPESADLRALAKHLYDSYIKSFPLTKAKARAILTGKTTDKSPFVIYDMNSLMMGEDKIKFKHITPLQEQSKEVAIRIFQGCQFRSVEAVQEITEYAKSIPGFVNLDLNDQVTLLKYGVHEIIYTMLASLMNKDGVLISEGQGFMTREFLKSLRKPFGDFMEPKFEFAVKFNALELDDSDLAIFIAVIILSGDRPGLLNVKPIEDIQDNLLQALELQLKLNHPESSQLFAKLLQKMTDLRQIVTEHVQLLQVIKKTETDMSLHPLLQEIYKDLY
Description: Transactivation of human PPARgamma expressed in African green monkey COS7 cells incubated overnight by dual-glo luciferase reporter gene assay

[2] = molecular target: T2, Peroxisome proliferator-activated receptor delta (Homo sapiens, UniProt Q03181); experiment: Transactivation of human PPARdelta expressed in African green monkey COS7 cells incubated overnight by dual-glo luciferase reporter gene assay; assay type: cell-based; conditions: cos-7
T2 sequence (Q03181 whole entry): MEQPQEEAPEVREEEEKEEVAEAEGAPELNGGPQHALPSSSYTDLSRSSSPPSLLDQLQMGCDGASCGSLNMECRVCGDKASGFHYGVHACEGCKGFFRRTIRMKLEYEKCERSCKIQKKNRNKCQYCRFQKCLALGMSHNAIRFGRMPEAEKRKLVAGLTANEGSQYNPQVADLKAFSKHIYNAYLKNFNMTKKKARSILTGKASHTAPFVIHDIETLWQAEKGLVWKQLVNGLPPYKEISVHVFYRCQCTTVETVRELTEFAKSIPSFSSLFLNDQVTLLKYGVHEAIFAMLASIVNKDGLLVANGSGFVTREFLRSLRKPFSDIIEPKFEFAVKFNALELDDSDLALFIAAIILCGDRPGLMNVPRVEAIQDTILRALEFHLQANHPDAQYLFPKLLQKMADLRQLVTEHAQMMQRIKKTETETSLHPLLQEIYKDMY

[3] = molecular target: T3, Peroxisome proliferator-activated receptor alpha (Homo sapiens, UniProt Q07869); conditions: cos-7
T3 sequence (Q07869 whole entry): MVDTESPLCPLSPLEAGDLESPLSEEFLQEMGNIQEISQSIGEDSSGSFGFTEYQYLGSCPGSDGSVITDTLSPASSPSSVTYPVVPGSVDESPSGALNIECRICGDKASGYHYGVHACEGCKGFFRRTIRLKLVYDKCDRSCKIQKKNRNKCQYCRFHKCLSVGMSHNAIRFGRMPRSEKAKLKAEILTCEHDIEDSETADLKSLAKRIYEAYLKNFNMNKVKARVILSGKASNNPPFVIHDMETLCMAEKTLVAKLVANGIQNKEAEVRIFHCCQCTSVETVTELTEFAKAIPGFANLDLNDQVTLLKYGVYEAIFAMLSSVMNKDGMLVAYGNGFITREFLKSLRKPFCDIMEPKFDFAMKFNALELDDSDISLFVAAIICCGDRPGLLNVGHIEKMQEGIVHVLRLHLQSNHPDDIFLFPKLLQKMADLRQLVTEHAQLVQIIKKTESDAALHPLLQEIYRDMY
Description: (§1) Transactivation of human PPARalpha expressed in African green monkey COS7 cells incubated overnight by dual-glo luciferase reporter gene assay

[4] = molecular target: T4, Peroxisome proliferator-activated receptor alpha (Homo sapiens) (UniProt Q07869); experiment: Transactivation of human PPARalpha expressed in African green monkey COS7 cells incubated overnight by dual-glo luciferase reporter assay relative to GW7647; assay type: cell-based; conditions: COS-7
T4 sequence (whole entry): T3 sequence (Q07869 whole entry)

[5] = molecular target: T5, Peroxisome proliferator-activated receptor delta (Homo sapiens) (UniProt Q03181); experiment: Transactivation of human PPARdelta expressed in African green monkey COS7 cells at 10 uM incubated overnight by dual-glo luciferase reporter assay; assay type: cell-based; conditions: COS-7
T5 sequence (whole entry): T2 sequence (Q03181 whole entry)

[6] = molecular target: T6, Peroxisome proliferator-activated receptor gamma (Homo sapiens) (UniProt P37231); experiment: Transactivation of human PPARgamma expressed in African green monkey COS7 cells at 10 uM incubated overnight by dual-glo luciferase reporter gene assay; assay type: cell-based; conditions: COS-7
T6 sequence (whole entry): T1 sequence (P37231 whole entry)

[7] = molecular target: T3, Peroxisome proliferator-activated receptor alpha
Description: as §1

[8] = molecular target: T7, Bifunctional epoxide hydrolase 2 (Homo sapiens, UniProt P34913); experiment: Inhibition of human recombinant sEH using PHOME as substrate preincubated for 30 mins followed by substrate addition measured for 30 mins by fluorescence-based assay
T7 sequence (P34913 whole entry): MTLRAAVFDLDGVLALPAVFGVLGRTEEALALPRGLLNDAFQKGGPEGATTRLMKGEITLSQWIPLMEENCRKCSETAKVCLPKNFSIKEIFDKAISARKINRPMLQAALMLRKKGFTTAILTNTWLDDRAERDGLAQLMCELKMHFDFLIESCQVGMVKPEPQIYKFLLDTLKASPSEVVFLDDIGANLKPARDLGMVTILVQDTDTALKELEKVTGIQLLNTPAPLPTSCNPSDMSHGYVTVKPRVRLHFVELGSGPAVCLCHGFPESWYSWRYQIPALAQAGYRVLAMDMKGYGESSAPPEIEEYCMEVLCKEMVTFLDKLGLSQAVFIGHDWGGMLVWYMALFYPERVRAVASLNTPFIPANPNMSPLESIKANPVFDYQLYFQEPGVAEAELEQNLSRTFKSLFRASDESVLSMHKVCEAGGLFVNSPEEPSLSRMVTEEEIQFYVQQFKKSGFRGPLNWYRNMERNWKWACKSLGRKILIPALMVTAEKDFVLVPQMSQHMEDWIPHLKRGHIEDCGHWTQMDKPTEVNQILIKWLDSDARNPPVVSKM

[9] = Solubility of the compound in water by microplate reader analysis; assay type: physicochemical
Mus musculus [10] = experiment: Drug metabolism in RjOrl:Swiss (CD-1) mouse plasma assessed as 2-Ethyl-3-[4-(N-((2-trifluoromethyl)benzyl)benzamide)]-propionic Acid formation at 30 mg/kg, po administered as single dose; assay type: ADME, organism-based; conditions: in vivo
Mus musculus [11] = experiment: Cmax in RjOrl:Swiss (CD-1) mouse plasma assessed as 2-Ethyl-3-[4-(N-((2-trifluoromethyl)benzyl)benzamide)]-propionic Acid at 30 mg/kg, po administered as single dose; assay type: ADME, organism-based; design: dose 30 mg/kg, route oral; conditions: in vivo
Brain = experiment: Drug uptake in RjOrl:Swiss (CD-1) mouse brain assessed as 2-Ethyl-3-[4-(N-((2-trifluoromethyl)benzyl)benzamide)]-propionic Acid at 30 mg/kg, po administered as single dose; assay type: ADME, organism-based; conditions: in vivo
Mus musculus [12] = experiment: Tmax in RjOrl:Swiss (CD-1) mouse plasma assessed as 2-Ethyl-3-[4-(N-((2-trifluoromethyl)benzyl)benzamide)]-propionic Acid at 30 mg/kg, po administered as single dose; assay type: ADME, organism-based; conditions: in vivo
Mus musculus [13] = experiment: Apparent volume of distribution during terminal phase in RjOrl:Swiss (CD-1) mouse plasma assessed as 2-Ethyl-3-[4-(N-((2-trifluoromethyl)benzyl)benzamide)]-propionic Acid at 30 mg/kg, po administered as single dose; assay type: ADME, organism-based; conditions: in vivo
Mus musculus [14] = experiment: Apparent oral clearance in RjOrl:Swiss (CD-1) mouse plasma assessed as 2-Ethyl-3-[4-(N-((2-trifluoromethyl)benzyl)benzamide)]-propionic Acid at 30 mg/kg administered as single dose; assay type: ADME, organism-based; conditions: in vivo
Mus musculus [15] = experiment: AUC (0 to infinity) in RjOrl:Swiss (CD-1) mouse plasma assessed as 2-Ethyl-3-[4-(N-((2-trifluoromethyl)benzyl)benzamide)]-propionic Acid at 30 mg/kg, po administered as single dose; assay type: ADME, organism-based; design: dose 30 mg/kg, route oral, time infinity; conditions: in vivo

Structure (SMILES) | EC50 [1] | EC50 [2] | EC50 [3] | Emax [4] | Emax [5] | Activity [6] [%] | EC50 [7] [µM] | IC50 [8] [µM] | solubility [9] [µM] | Drug metabolism (Mus musculus [10]) | Cmax (Mus musculus [11]) [nM] | Drug uptake (Brain) [ng/g] | Tmax (Mus musculus [12]) [min] | Vz/F (Mus musculus [13]) [L/kg] | CL/F (Mus musculus [14]) [mL/min/kg] | AUC (Mus musculus [15]) [ng·h/mL]
CON(C)C(=O)/C=C/c1ccc(C(=O)NCc2ccccc2C(F)(F)F)cc1 | Not Active | Not Active | Not Active | inactive | inactive |  |  |  |  |  |  |  |  |  |  | 
O=C(O)c1cccc(-c2ccc(C(=O)NCc3ccccc3C(F)(F)F)cc2)c1 |  | Not Active | Not Active | inactive | inactive | 28 |  |  |  |  |  |  |  |  |  | 
CCC(Cc1ccc(C(=O)NCc2ccc(Oc3ccccc3)cc2)cc1)C(=O)O (stereo unspecified) |  |  |  |  | 20% |  | 0.9 | 12 |  |  |  |  |  |  |  | 
O=C(NCc1ccccc1C(F)(F)F)c1ccc(-c2nnn[nH]2)cc1 | Not Active | Not Active | Not Active | inactive | inactive |  |  |  | 375 (≈ 130 µg/mL) |  |  |  |  |  |  | 
CCOC(=O)C(CC)Cc1ccc(C(=O)NCc2ccccc2C(F)(F)F)cc1 (stereo unspecified) |  | Not Active | Not Active | inactive | inactive |  |  |  | 2.5 (≈ 1.02 µg/mL) | metabolite_detected | 2000 | 30 | 30 | 54.3 | 125 | 4026
